Experiment [1] has as its system E. coli JM109 carrying the plasmid vector pACSE without an ampC gene. The experiment is described as follows: MIC test, plasmid vector pACSE without an ampC gene. The note with it: pACSE (vector, no ampC). The format is cell-based. As to the method:
(§1) Basically, a MIC determination is carried out by preparing serial dilutions of drugs in a micro-well plate and measuring host cell growth within those wells. The MIC for a particular set of host cells containing a mutant resistance gene is determined by examining the wells to locate the lowest concentration of drug which inhibited cell growth. This is capable of discriminating generally between those host cells containing mutant resistance genes conferring different degrees of resistance against the particular drug.
(§2) Serial dilutions were prepared by first determining the volume of drug solution to be added to the first well in each row to achieve the desired concentration of drug in a total volume of 1 ml. The MIC was determined for the following drugs: ampicillin, pipericillin, temocillin, cephalothin, cefuroxime, cefotaxime, ceftazidime, cefepime, imipenem, meropenem, and aztreonam. To the first well in each row 1 ml of the diluted cell suspension was added, and to all remaining wells per row 0.5 ml of the diluted cell suspension was added. For each row, the predetermined volume of a drug solution was added to the first well per row, mixed well, and then 0.5 ml of the mixed solution was transferred to the next well, and so on until the serial dilutions were completed. From the last well in each row, 0.5 ml was removed so that all well contained 0.5 ml of the drug-containing culture. Plates were sealed with BreatheEasy film (Diversified Biotech, Boston, Mass.) and maintained overnight at 37° C. with shaking. […] The MICs, in μg/ml, for each of the above-identified drugs was as follows: ampicillin, >1024; pipericillin, >1024; temocillin, 32: cephalothin, 1024; cefuroxime, 512; cefotaxime, 8; ceftazidime, 64; cefepime, 1; imipenem, 0.25; meropenem, 0.03125; and aztreonam, 16.
Plasmids were prepared from those isolates and were transformed into E. coli strain JM109. MICs conferred by each of those plasmids was determined as in Example 5.
(§3) MICs of three of the plasmids containing the wildtype AmpC gene into which the above mutations have been introduced have been determined, as shown in Table 2 below.

The test system of experiment [2] is E. coli JM109 carrying pAmpC0 (wildtype E. coli K12 ampC gene). The experiment is described as follows: MIC test, plasmid pAmpC0 (wildtype ampC gene). The format is cell-based. To be noted: for MIC: pAmpC0 (wildtype ampC); for resistance conferred by plasmid pAmpC0: wildtype ampC gene, Table 1 boxed cells. As to the method: as §1
All experiments utilizing ampicillin resistance will be directed toward the cloned and regulated ampC gene (or mutant ampC gene) in such a way that the regulation, i.e., the amount of enzyme produced per cell, will be held constant throughout the experiments and all of the “improvement” in resistance will come from improvement in β-lactamase activity.
as §2, with “16. […]” for “16.”

The subject of experiment [3] is host cells carrying pAmpC0-305 (AmpC T121 to S). The experiment is described as follows: MIC test, single-mutation plasmid pAmpC0-305. The format is cell-based, E. coli. To be noted: pAmpC0-305; A663 to G; T121 to S. As to the method: as §1, §2
(§4) To determine the phenotypic effects of each of the amino acid substitutions, the A907C, A587G, A663G, T869G, and A884G mutations are being individually introduced into pAmpC0 by site-directed mutagenesis. It is expected that the A907C mutation will result in MICs that are identical to pAmpC13A. The A587G, A663G, and As84G mutations will also be introduced individually into AmpC13 to determine whether the combination of any of those mutations with A907C will result in increased resistance levels.
as §3

In experiment [4] the test system is host cells carrying PAmpC0-307 (AmpC L290 to R). The experiment is described as follows: MIC test, single-mutation plasmid PAmpC0-307. The format is cell-based, E. coli. To be noted: PAmpC0-307; T869 to G; L290 to R. As to the method:
as §1, §2, §4, §3

Experiment [5] has as its system host cells carrying PAmpC0-308 (AmpC N295 to S). Description: MIC test, single-mutation plasmid PAmpC0-308. The format is cell-based, E. coli. To be noted: A644 to G.
The test system of experiment [6] is E. coli carrying pAmpC13A (mutant ampC, S303R). Description: MIC test, mutant plasmid pAmpC13A. The format is cell-based. As to the method:
(§5) Serial dilutions were prepared by first determining the volume of drug solution to be added to the first well in each row to achieve the desired concentration of drug in a total volume of 1 ml. The MIC was determined for the following drugs: ampicillin, pipericillin, temocillin, cephalothin, cefuroxime, cefotaxime, ceftazidime, cefepime, imipenem, meropenem, and aztreonam. To the first well in each row 1 ml of the diluted cell suspension was added, and to all remaining wells per row 0.5 ml of the diluted cell suspension was added. For each row, the predetermined volume of a drug solution was added to the first well per row, mixed well, and then 0.5 ml of the mixed solution was transferred to the next well, and so on until the serial dilutions were completed. From the last well in each row, 0.5 ml was removed so that all well contained 0.5 ml of the drug-containing culture. Plates were sealed with BreatheEasy film (Diversified Biotech, Boston, Mass.) and maintained overnight at 37° C. with shaking.
(§6) Plasmids were prepared from those isolates and were transformed into E. coli strain JM109.

Experiment [7] concerns E. coli carrying pAmpC41A (mutant ampC). The experiment is described as follows: MIC test, mutant plasmid pAmpC41A. The format is cell-based. As to the method:
as §5, with “shaking. […]” for “shaking.”
Plasmids were prepared from those isolates and were transformed into E. coli strain JM109. MICs conferred by each of those plasmids was determined as in Example 5. […]

Experiment [8] deals with E. coli carrying pAmpC21B (mutant ampC). Description: MIC test, mutant plasmid pAmpC21B. The format is cell-based. As to the method: as §5, §6
Experiment [9] relates to E. coli DH5α-E containing multiply mutated ampC. Description: MIC of population of E. coli host cells containing multiply mutated (DNA-shuffled) ampC. The format is cell-based. To be noted: Escherichia coli; lowest drug concentration that completely inhibited growth; overnight at 37° C., MH-I broth, 48-well plates, shuffled ampC library in DH5α-E. As to the method: E. coli host cells prepared according to Example 4 were diluted into 100 ml MuellerHinton-IPTG (MH-T) broth. Duplicate samples of 10^0, 10^1, and 10^2 dilutions were spread onto L(tet) plates to estimate total transformants, and duplicate 10^0 and 10^1 samples were spread onto MH-I(ampicillin) plates to estimate the number of Amp^R transformants. 10 mg ampicillin was added to each culture using 1 ml of a 10 mg/ml ampicillin solution. The culture was allowed to stand overnight at 37° C. without shaking.
Next, the minimum inhibitory concentration of a number of drug was determined. An estimate of viable cells was calculated by assuming that an A600 of 1.0 is equivalent to 1.9×10^8 per ml for DH5α-E cells. A sample of the overnight culture was diluted into 70 ml of MH-I so that the number of cells per ml 10^5 per ml. The resulting suspension was used to determine MIC in 48-well microtiter plates.
as §2

In brackets after ≈: the same amount, converted by molar mass.

The term MIC denotes the least concentration at which growth counts as inhibited. On to `CCN1CCN(C(=O)N[C@@H](C(=O)N[C@@H]2C(=O)N3[C@@H]2SC(C)(C)[C@@H]3C(=O)O)c2ccccc2)C(=O)C1=O` [Pipericillin, pipericillin], for which the minimal inhibitory concentration (MIC) in [1] is 4 µg/mL (≈ 7.73 µM); in [2], 16 µg/mL (≈ 30.9 µM); in experiment [3], 16 µg/mL; in experiment [4] it was 16 µg/mL; in experiment [5], 4 µg/mL (≈ 7.73 µM). Further, the “resistance conferred by plasmid pAmpC0” value in [2] was “not”. For the same molecule, in [6], the “clinical resistance conferred by pAmpC13A” value was “clinical resistance”. Besides, in experiment [6], the “improved resistance conferred by pAmpC13A” value is on record as “improved resistance”. The “improvement in resistance conferred by pAmpC41A” value in experiment [7] (after subsequent rounds of mutagenesis and selection, relative to pAmpC13A) is “slight improvement in resistance”. Also, in [8] (after two cycles of mutagenesis and selection), the “clinical resistance conferred by pAmpC21B” value is recorded as “clinical resistance”.
Regarding `CO/N=C(\C(=O)N[C@@H]1C(=O)N2C(C(=O)[O-])=C(C[N+]3(C)CCCC3)CS[C@H]12)c1csc(N)n1` [Cefepime, cefepime], the MIC was determined as 1 µg/mL in experiment [9]; 0.0312 µg/mL (≈ 0.065 µM) in [1]; 0.0625 µg/mL (≈ 0.13 µM) in [2]; 0.0625 µg/mL in experiment [3]; 0.0625 µg/mL in [4]; 0.0625 µg/mL (≈ 0.13 µM) in experiment [5]. In addition, the “resistance conferred by plasmid pAmpC0” value in [2] is listed as “not”. In experiment [6], the “improved resistance conferred by pAmpC13A” value was “improved resistance”. For the same molecule, in experiment [7] (pAmpC41A, first line), the improvement in resistance turned out to be 128 fold. This molecule registered an increase in resistance in experiment [8] (pAmpC21B, second line) of 2 fold.

(Values after patent US6720142B1, “Method of determining evolutionary potential of mutant resistance genes and use thereof to screen for drug efficacy” (priority 1999, dated 2004).)
